Test system: mixture of 12 microorganisms
Assay: Calculation of synergism of 573 and 651 combinations (Kull et al. method)
Type: cell-based
Conditions: for SI (synergy index, Qa'/QA + Qb'/.75 QB): <1 synergism, 1 additivity, >1 antagonism
Method: Each single culture was inoculated to TSB agar slants and incubated for 2 days at 30° C. for C. albicans and all bacteria except E. coli and S. aureus, which were at 37° C., and incubated for 10-14 days at 25° C. for fungal cultures. The bacteria and fungi were then washed off the slants with phosphate buffer (0.125 M, pH 7.2) and inoculated into each test tube containing a given concentration and ratio of 573 and 886 to make final cell concentration of about 2×10^7 bacteria and 2×10^6 fungi per ml. […] Seven days after inoculation, 5 microliter of sample from each test tube (containing about 10^5 bacteria and 10^4 fungi from original inoculation) was removed and assessed for viable organisms by 1:50 dilution into TSB medium and checked for regrowth. No viable organisms were detected from the test tubes where MICs were observed. […] Each test tube was reinoculated 2 more times (a total of 3 inoculations) to determine the capacity and the longlasting activity of the combinations.
Synergism is determined by the industrially accepted method described by Kull, F. C.; Eisman, P. C.; Sylvestrowicz, H. D. and Mayer, R. L. in Applied Microbiology 9:538-541 (1961) using the ratio determined by [formula] wherein QA=concentration of compound A in parts per million (ppm), acting alone, which produced an end point
Qa=concentration of compound A in ppm, in the mixture, which produced an end point
QB=concentration of compound B in ppm, acting alone, which produced an end point
Qb=concentration of compound B in ppm, in the mixture, which produced an end point
When the sum of Qa/QA plus Qb/QB is greater than one, antagonism is indicated. When the sum is equal to one, additivity is indicated, and when the sum is less than one, synergism is indicated.
As shown, a wide range of concentration and ratios was tested. More importantly all the critical end-point activities for the combinations were covered. […] Thus, the end-point activities are based on the minimum concentrations of a given ratio of combination product that inhibit all three inoculations.
The end-point activity (MIC in ppm) is taken from Table 1.
QA is the end-point activity of 573 alone
QB is the end-point activity of 886 alone
Qa is the end-point activity 573 in the mixture of 573 and 886
Qb is the end-point activity of 886 in the mixture of 573 and 886.
Since 886 is 25% 573 and 75% 651, the total 573 (Qa') in the combinations is Qa+25% Qb, and the total 651 (Qb') in the combinations is 75% Qb. Total concentration of 573 and 651 in the mixture is Qa' and Qb'. The % 573 in the mixture is Qa'/(Qa'+Qb'), and %651 in the mixture is Qb'/(Qa'+Qb'.)
Therefore, the calculation of synergy index (SI) is Qa'/QA+Qb'/.75 QB. The most preferred synergy for 573 and 651 combinations is seen at 2.3%-4.5% of 651. Taking the synergy index of less than 0.5 as most significant, then a range of 2.3% to 8.5% of 651 in the 573/651 combinations is preferred.

## Cn1sccc1=O [compound 573, 2-methyl-4-isothiazolin-3-one]
Expt. 1
  Qa'/QA: 1.00
  Qb'/QB* (QB* = QB × 75%): 0.00
  Total 573 Qa' (Qa + 25% Qb) at end-point: 500.0 ppm
  Total ppm Qa' + Qb' at end-point: 500.0 ppm
  SI (synergy index, Qa'/QA + Qb'/.75 QB): 1.00
Expt. 2
  Qa'/QA: 1.00
  Qb'/QB* (QB* = QB × 75%): 0.00
  Total 573 Qa' (Qa + 25% Qb) at end-point: 125.0 ppm
  Total ppm Qa' + Qb' at end-point: 125.0 ppm
  SI (synergy index, Qa'/QA + Qb'/.75 QB): 1.00

Source: patent publication US5100905A, “Method for inhibiting growth of bacteria, fungi or algae by treatment with biocide composition” (Rohm and Haas Company, priority 1991, dated 1992)
